The target in this assay is PxutCSP19 (Papilio xuthus, UniProt A0A194QJK0). The assay is described as follows: Fluorescence competitive binding assay (1-NPN displacement), wildtype PxutCSP19. The conditions noted are these: for inhibition at 20 µM: read-out: F.D. (fluorescent displacement rate of ligands), Wildtype (WT); for inhibition at 20 µM / F.D. (fluorescent displacement rate of ligands): ligand at 20 μM, PxutCSP19/1-NPN each 2 μM, NB = no binding; for binding with PxutCSP19 (in words) / 1-NPN fluorescence displaced: wildtype; for 1-NPN fluorescence displaced: ligand at 36 μM. From the text: The open reading frame (ORF) of PxutCSP19 was cloned with a PrimeSTAR®® Max DNA Polymerase (TaKaRa, Liaoning, Dalian, China) and gene-specific primers containing restriction enzyme sites (BamH I and Xho I) (Table S2). The PCR products were detected on a 1.5% (w/v) agarose gel, and the expected bands were cut and purified using a HiPure Gel Pure DNA Mini Kit (Magen, Guangzhou, China). Next, BamH I and Xho I were used to digest the PxutCSP19 products and pET-30a (+) plasmids, followed by purification. A T4 DNA ligase (Thermo Fisher Scientific, Waltham, MA, USA) was applied to the construction of the recombinant plasmids pET-30a (+)/PxutCSP19. After being confirmed by sequencing, the plasmids were transformed into BL21 (DE3) competent cells so as to express recombinant proteins with 1.0 mM isopropyl β-D-thiogalactoside (IPTG). Because this recombinant protein pET-30a (+)/PxutCSP19 was insoluble, we applied a protein denaturation–renaturation approach to purify PxutCSP19 with an affinity chromatography technique, in which the denaturation buffer included 8 M urea and 1.0 mM β-mercaptoethanol.
In order to investigate the ligand-binding properties of PxutCSP19 to host odorants and insecticides, we first asked whether this fluorescent probe 1-NPN was available for the binding of PxutCSP19. To calculate the binding ability of PxutCSP19 to 1-NPN, we titrated different final concentrations of 1-NPN (2~20 μM) into Tris-HCl buffer (pH 7.4) containing 2 μM PxutCSP19. The binding constant (K1-NPN) of 1-NPN to this protein was determined with GraphPad Prism 7 (GraphPad Software Inc., San Diego, CA), as previously described. The solution was excited at 337 nm and the emission peak was monitored at 414 nm on an RF-5301PC spectrofluorometer (Shimadzu, Kyoto, Japan) using a quartz micro-cuvette filled with a 100 μL mixture, with 5 nm excitation and emission slit widths. If the host odorant molecules could displace more than 40% of the 1-NPN fluorescence from the binding cavity of PxutCSP19, the compounds would be continuously added up to 36 μM with triplicates. For the binding experiments, each compound would be added into the PxutCSP19/1-NPN (each 2 μM) complex with final concentrations of 2~20 μM. […] We used the Ki values to compare the binding affinities of various ligands with the equation: Ki = [IC50]/(1 + [1-NPN]/K1-NPN), where IC50 represents the ligand concentrations displacing one half of the initial protein/1-NPN fluorescence, and [1-NPN] is the free concentration of 1-NPN at 2 μM.

Setting [1] is: Wildtype (WT), ligand up to 20 μM or 36 μM, displacing half of protein/1-NPN fluorescence, read-out: IC50.

The values that follow come from publication PMC11276849, “A Female-Biased Chemosensory Protein PxutCSP19 in the Antennae of Papilio xuthus Tuned to Host Volatiles and Insecticides” (Insects, 2024).

Where two headings read alike, the source gives them in different places. A value given as a limit tells only on which side of the number the result lay.

PxutCSP19, sequence (A0A194QJK0 entry or part of it): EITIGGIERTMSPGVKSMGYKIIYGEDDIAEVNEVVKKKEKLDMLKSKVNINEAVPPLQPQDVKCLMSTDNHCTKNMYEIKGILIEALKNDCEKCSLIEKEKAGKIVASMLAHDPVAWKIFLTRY

On to `CC1=CC[C@H](C(C)C)C=C1` [α-Phellandrene], for which the IC50 is above 20 µM and the inhibition at 20 µM is 34.1%.
Taken in the same sequence, the figures for `CNC(=O)c1cc(Cl)cc(C)c1NC(=O)c1cc(Br)nn1-c1ncccc1Cl` [Chlorantraniliprole, reference compound] were above 20 µM and 43.6%.
For the compound `C=C1CC/C=C(\C)CC[C@@H]2[C@@H]1CC2(C)C` [β-Caryophyllene], the “binding with PxutCSP19 (in words)” value is “no binding”.
For `CC/C=C\CCO` [(Z)-3-Hexen-1-ol], the concentration for half-maximal inhibition (IC50) was above 20 µM and the inhibition at 20 µM came out at 35.8%.
`CC(C)=CCC[C@@H](C)CC=O` [Citronellal]: the “F.D. (fluorescent displacement rate of ligands)” value (Wildtype (WT)) is 34.20%. The half-inhibitory concentration (IC50) under setting [1] is above 20 µM.
Consider `CCCCCCCCCC=O` [Decanal], for which the IC50 is above 20 µM and the inhibition at 20 µM was determined as 28.7%.
As to `C=CC(C)(O)CCC=C(C)CCC=C(C)C` (mixture of isomers) [Nerolidol], the 50% inhibitory concentration (IC50) is above 20 µM and the inhibition at 20 µM amounted to 12.4%.
Take `Cc1ccc(C(C)C)cc1` [p-Isopropyl toluene]: the “F.D. (fluorescent displacement rate of ligands)” value (Wildtype (WT)) was determined as 32.32%. For the same compound, the IC50 under setting [1] is above 20 µM.
Regarding `OCCc1ccccc1` [Phenethyl alcohol], the half-inhibitory concentration (IC50) is above 20 µM and the inhibition at 20 µM came out at 39.7%.
For `CC(C)=CCC/C(C)=C/CO` [Geraniol], the inhibition at 20 µM worked out at 39%.
As for `C/C(=N\C#N)N(C)Cc1ccc(Cl)nc1` [Acetamiprid, reference compound], the IC50 is above 20 µM and the inhibition at 20 µM is 42.9%.
Regarding `COP(=O)(OC)C(O)C(Cl)(Cl)Cl` (stereo not shown) [Trichlorphon, reference compound], the “F.D. (fluorescent displacement rate of ligands)” value (Wildtype (WT)) is recorded as 33.61%. Under setting [1], the concentration for half-maximal inhibition (IC50) was above 20 µM.
Regarding `CC1=CC[C@@H]2C[C@H]1C2(C)C` [(1R)-(+)-α-Pinene], the IC50 was above 20 µM and the inhibition at 20 µM is 38.4%.
In the case of `CCCCCCCCC=O` [Nonanal], the IC50 was above 20 µM and the inhibition at 20 µM turned out to be 29.3%.
As to `CCCCCCCC=O` [Octanal], the concentration for half-maximal inhibition (IC50) is above 20 µM and the inhibition at 20 µM stood at 22.8%.
On to Farnesene, for which, under “Wildtype (WT)”, the “F.D. (fluorescent displacement rate of ligands)” value worked out at 23.21%. For the same compound, the IC50 under setting [1] is above 20 µM.
`C=C[C@]1(C)CC[C@@H](C(=C)C)C[C@H]1C(=C)C` [β-Elemene]: the “binding with PxutCSP19 (in words)” value is given as “no binding”.
Regarding `CC(C)=CCC/C(C)=C/C=O` [Citral], the half-inhibitory concentration (IC50) was above 20 µM and the inhibition at 20 µM amounted to 39.7%.
Taken in the same sequence, the figures for `CS/C(C)=N\OC(=O)N(C)SN(C)C(=O)O/N=C(\C)SC` [Thiodicarb, reference compound] were above 20 µM and 37.4%.
Consider `CC(C)=CCC/C(C)=C/CC/C(C)=C/CO` [Farnesol], for which the IC50 was above 20 µM and the inhibition at 20 µM was 27%.
For `O=CCc1ccccc1` [Phenylacetaldehyde], the 50% inhibitory concentration (IC50) was above 20 µM and the inhibition at 20 µM turned out to be 27.3%.
As to `C=C(C)[C@H]1CC=C(C)CC1` [Limonene], for the setting “Wildtype (WT)”, the “F.D. (fluorescent displacement rate of ligands)” value was 20.36%. In addition, the IC50 under setting [1] is above 20 µM.
On to `CC1=CCC(O)(C(C)C)CC1` (stereo not shown) [4-Terpineol], for which the half-maximal inhibitory concentration (IC50) was above 36 µM, the inhibition at 20 µM is above 40% and the 1-NPN fluorescence displaced result is on record as “less than 50%”.
In the case of `CN1COCN(Cc2cnc(Cl)s2)/C1=N\[N+](=O)[O-]` [Thiamethoxam, reference compound], the IC50 is above 20 µM and the inhibition at 20 µM worked out at 44.6%.
Taken in the same sequence, the figures for `COP(=O)(NC(C)=O)SC` (stereo not shown) [Acephate, reference compound] were above 20 µM and 37.1%.
As for `CC(=O)OC/C=C(\C)CCC=C(C)C` [Geranyl acetate], the concentration for half-maximal inhibition (IC50) is above 20 µM and the inhibition at 20 µM was found to be 33.3%.
For `CNC(=O)ON=C(C)SC` [Methomyl, reference compound], the IC50 is above 20 µM and the inhibition at 20 µM was found to be 45.4%.
Taken in the same sequence, the figures for `CCCCCCO` [1-Hexanol] were above 20 µM and 39%.
Taken in the same sequence, the figures for `c1ccc2[nH]ccc2c1` [Indole] were above 20 µM and 39%.
The corresponding values for `O=C1CCC[C@@H]2[C@H]3CCCN4CCC[C@@H](CN12)[C@@H]34` [Matrine, reference compound] are above 20 µM and 40%.
`O=[N+]([O-])NC1=NCCN1Cc1ccc(Cl)nc1` [Imidacloprid, reference compound]: the half-inhibitory concentration (IC50) was above 20 µM and the inhibition at 20 µM was 41.7%.
As to `C=C1CCC2(C(C)C)CC12` (stereo not shown) [Sabinene], the half-maximal inhibitory concentration (IC50) was above 20 µM and the inhibition at 20 µM worked out at 33.5%.
For `COC(=O)c1ccccc1C` [Methyl o-toluate], the “F.D. (fluorescent displacement rate of ligands)” value (Wildtype (WT)) amounted to 37.28%. Also, the half-maximal inhibitory concentration (IC50) under setting [1] is above 20 µM.
`CC1=CCC2CC1C2(C)C` (stereo not drawn) [α-Pinene]: the IC50 is above 20 µM and the inhibition at 20 µM worked out at 34.6%.
Consider `CC1=CC=C(C(C)C)CC1` [α-Terpinene], for which the IC50 was above 36 µM, the inhibition at 20 µM was above 40% and the 1-NPN fluorescence displaced entry is listed as “less than 50%”.
For the compound `C=CC(=C)CCC=C(C)C` [Myrcene], the half-inhibitory concentration (IC50) was above 20 µM and the inhibition at 20 µM was determined as 32.4%.
Consider `CCCC(=O)OCC` [Ethyl butyrate], for which the half-inhibitory concentration (IC50) is above 20 µM and the inhibition at 20 µM was 28.7%.
Turning to `O=C(NC(=O)c1c(F)cccc1F)Nc1ccc(Cl)cc1` [Diflubenzuron, reference compound], the IC50 is above 20 µM and the inhibition at 20 µM was found to be 27%.
Take `C/C1=C\CC/C(C)=C/CC(C)(C)/C=C/C1` [α-Caryophyllene]: the “F.D. (fluorescent displacement rate of ligands)” value (Wildtype (WT)) is recorded as 7.48%. The 50% inhibitory concentration (IC50) under setting [1] was above 20 µM.
The corresponding values for `CC1(C)[C@H]2O[C@H]2[C@H]2[C@](C)(O)[C@@H]3CC[C@@H]4[C@@H](O)[C@@]3(C[C@@H](O)[C@@]21O)C[C@@]4(C)O` [Rhodojaponin III, reference compound] are 38.52% and above 20 µM.
For the compound `CC1=CCC2C(C1)C2(C)C` (stereo not shown) [3-Carene], the IC50 was above 20 µM and the inhibition at 20 µM came to 35.1%.
The corresponding values for `CCCCCC=O` [Hexanal] are above 20 µM and 21.1%.
As to `N#Cc1nn(-c2c(Cl)cc(C(F)(F)F)cc2Cl)c(N)c1[S+]([O-])C(F)(F)F` (stereo not shown) [Fipronil, reference compound], the IC50 is above 20 µM and the inhibition at 20 µM stood at 37.5%.
Take `CCOC(C)=O` [Ethyl acetate]: the IC50 is above 20 µM and the inhibition at 20 µM came out at 37.6%.
The corresponding values for `C=C1CCC2CC1C2(C)C` (stereo not drawn) [β-Pinene] are above 20 µM and 31.2%.
Consider `CC1=CCC(C(C)C)=CC1` [γ-Terpinene], for which the IC50 was above 36 µM, the inhibition at 20 µM was above 40% and the 1-NPN fluorescence displaced result was “less than 50%”.
In the case of Emamectin benzoate [reference compound], under “Wildtype (WT)”, the “F.D. (fluorescent displacement rate of ligands)” value is 46.98%. For the same compound, the IC50 under setting [1] is above 20 µM.
In the case of `CCC/C=C/C=O` [(E)-2-Hexenal], the IC50 is above 20 µM and the inhibition at 20 µM came out at 33.8%.
The corresponding values for `O=Cc1ccccc1` [Benzaldehyde] are above 20 µM and 36.9%.
For `O=C(NC(=O)c1ccccc1Cl)Nc1ccc(OC(F)(F)F)cc1` [Triflumuron, reference compound], the IC50 was above 20 µM and the inhibition at 20 µM was 28%.
Turning to `CCC/C=C/CO` [(E)-2-Hexen-1-ol], the 50% inhibitory concentration (IC50) was above 20 µM and the inhibition at 20 µM came out at 35.6%.
In the case of `O=C(NC(=O)c1ccccc1Cl)Nc1ccc(Cl)cc1` [Chlorbenzuron, reference compound], the “F.D. (fluorescent displacement rate of ligands)” value (Wildtype (WT)) is on record as 42.75%. For the same compound, the IC50 under setting [1] is above 20 µM.
On to `CCCSP(=O)(OCC)Oc1ccc(Br)cc1Cl` (stereo not shown) [Profenofos, reference compound], for which the IC50 is above 20 µM and the inhibition at 20 µM was determined as 41%.
